Legend:
[1] = system: Sprague-Dawley rats; experiment: Chronic sciatic nerve ligation model in rats (mechanical allodynia, Von Frey); format: in vivo, rat; details: 30.0 mg/kg p.o., n=8/group
Excerpt: Following a 10-day post-operative period after partial ligation of the sciatic nerve as described by Seltzer et al, each of the operated Sprague-Dawley rats (obtained from Charles River, Inc.) will be tested for the development of consistent, mechanical allodynia (pain response to a non-noxious stimulus). Animals are placed in a bottomless plexiglass box placed on a stainless steel platform with ¼″ holes. After at least a 30-min conditioning period in which rats are allowed to sit quietly in the cages on the platform, a baseline mechanical sensitivity is determined which represents the pre-drug 50% paw withdrawal threshold. […] The 50% threshold for foot withdrawal is determined by using the “Up and Down” step procedure. […] If the pressure of the largest diameter fiber raises the foot without a withdrawal, it is considered as “no response.” and recorded as >300 g on the data sheet.
Following the measurement of the initial predrug responses, the rats will be given an p.o. injection of tonabersat (n=8 rats per dose level). The mechanical threshold will then be assessed at 1, 2, 4, 6, 8, and 24 hrs post-injection to determine the duration of action of the test compound and the TPE in this model of mechanical allodynia. […]
The withdrawal threshold for each animal determined at each time point is computed using the “xoxox” step procedure originally developed by Dixon (1980). […]

[2] = system: CF1 mouse; experiment: Formalin-induced nociception model in mice (hyperalgesia and inflammation); format: in vivo; details: 45.0 mg/kg p.o., n=8/group; for Drug-treated AUC (duration of licking): formalin 1 hour after dosing
Protocol: An injection of 0.5% formalin is made into the planter region of a CF1 mouse (obtained from Charles River, Inc.) right hind paw. This elicits a distinct biphasic behavioral profile characterized by the mouse licking the affected paw. Immediately following the injection the mouse licks the paw for about 10 minutes. This is phase 1 (acute) and is followed by a brief latent period where there is little behavioral activity. A more prolonged period of about 20 to 30 minutes of paw licking ensues which constitutes phase 2 (inflammatory).
Prior to the administration of the test drug or vehicle each mouse undergoes a 15-minute conditioning period in one of several 6″ tall plexiglass observation tubes (4″ diameter) that are placed in front of a mirror. Following the conditioning period, doses of tonabersat will be administered p.o. and the mouse returned to its home tube. At a time determined to correlate with peak plasma levels (1 hour), formalin will be injected sub-dermally (20 ul; 27 gauge needle) into the plantar surface of the right hind foot. The bevel of the needle is placed facing down toward the skin surface. Following injection of the formalin each animal is observed for the first 2 minutes of each 5 minute epoch for a total of 45 minutes. The cumulative length of licking for each 2 minute time period is measured. An animal receiving the requisite volume of vehicle is alternated with each mouse given the test drug. Animals are euthanized following the conclusion of the experiment. An n of 8 mice per group will be employed in this study.
Area under the curve (AUC) determination is made using the GraphPad Prism Version 3.03. Total AUC is calculated for both the test and control groups for both the acute and inflammatory phases. The AUC for individual animals for each phase is also calculated and converted to percentage of total AUC of control. The average percentages and SEM for both the drug treated and control are calculated and tested for significant difference.

[3] = system: Sprague-Dawley rats; details: general statement, no dose given; cited from earlier work

Compound | % Control (threshold for foot withdrawal relative to predrug mean) ([1]; at time of peak effect 6.0 h, p = <0.05) [%] | Time of peak effect ([1]; threshold for foot withdrawal) [h] | Drug-treated AUC (duration of licking) ([2]; Acute Phase, Control AUC 185.8) | % Inhibition of Control ([2]; Acute Phase, p = >0.05) [%] | Drug-treated AUC (duration of licking) ([2]; Inflammatory Phase, Control AUC 446.7) | % Inhibition of Control ([2]; Inflammatory Phase, p = <0.05) [%] | Activity in sciatic nerve ligation model [3]
CC(=O)c1ccc2c(c1)[C@H](NC(=O)c1ccc(F)c(Cl)c1)[C@H](O)C(C)(C)O2 [Tonabersat, cis-6-acetyl-4-(S)-(3-chloro-4-fluorobenzoylamino)-3,4-dihydro-2,2-dimethyl-2H-1-benzopyran-3-(S)-ol] | 237.0 | 6.0 | 116.4 | 37.3 | 135.8 | 69.6 | –
NCC1(CC(=O)O)CCCCC1 [gabapentin] | – | – | – | – | – | – | active
CC(C)C[C@H](CN)CC(=O)O [pregabalin] | – | – | – | – | – | – | active

— patent US20130018091A1, “TREATMENT OF ALLODYNIA AND HYPERALGESIA” (priority 2009, published 2013)
